Results from US20240270741A1 (Cogent Biosciences, Inc., priority 2023, published 2024).

These compounds were tested against FGFR2 (Homo sapiens, UniProt P21802) (assay: FGFR wild type enzyme assay (HTRF KinEASE-TK), FGFR2). Settings: Enz FGFR2 (nM), FGFR2 wild type enzyme.
FGFR2, sequence (P21802 399-821 limits assumed): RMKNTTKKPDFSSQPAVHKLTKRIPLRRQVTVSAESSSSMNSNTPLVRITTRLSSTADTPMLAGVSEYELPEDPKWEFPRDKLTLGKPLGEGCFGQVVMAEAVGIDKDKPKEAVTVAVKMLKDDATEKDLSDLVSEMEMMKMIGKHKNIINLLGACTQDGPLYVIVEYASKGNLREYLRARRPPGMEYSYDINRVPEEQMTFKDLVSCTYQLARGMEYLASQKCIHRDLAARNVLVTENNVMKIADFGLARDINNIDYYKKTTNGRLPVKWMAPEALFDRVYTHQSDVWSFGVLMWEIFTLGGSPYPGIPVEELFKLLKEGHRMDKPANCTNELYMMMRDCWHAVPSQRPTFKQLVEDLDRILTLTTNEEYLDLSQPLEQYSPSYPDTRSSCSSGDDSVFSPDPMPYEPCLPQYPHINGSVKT

SMILES | IC50 [nM]
Cc1c(-c2cc(Sc3ccc(F)cc3C#N)c3c(C#N)cnn3c2)cnn1[C@H]1C[C@H]2CC[C@@H](C1)N2C [Example 300, 4-((2-cyano-4-fluorophenyl)thio)-6-(5-methyl-1-((1R,3r,5S)-8-methyl-8-azabicyclo[3.2.1]octan-3-yl)-1H-pyrazol-4-yl)pyazolo[1,5-a]pyridine-3-carbonitrile] | 1
Cc1c(-c2cc(Sc3ccc(F)cc3C#N)c3c(C#N)cnn3c2)cnn1[C@H]1CC[C@H](NC(=O)CO)CC1 [Example 301, N-((1r,4r)-4-(4-(3-cyano-4-((2-cyano-4-fluorophenyl)thio)pyrazolo [1,5-a]pyridin-6-yl)-5-methyl-1H-pyrazol-1-yl)cyclohexyl)-2-hydroxyacetamide] | 1
Cc1c(-c2cc(Sc3ccccn3)c3c(C#N)cnn3c2)cnn1[C@H]1CC[C@@H](O)CC1 [Example 302] | 4
Cc1nn(C2CCN(C)CC2)c(C)c1-c1cc(Sc2ncccc2F)c2c(C#N)cnn2c1 [Example 303, 6-(3,5-dimethyl-1-(1-methylpiperidin-4-yl)-1H-pyrazol-4-yl)-4-((3-fluoropyridin-2-yl)thio)pyrazolo[1,5-a]pyridine-3-carbontirile] | 6
Cc1nn([C@H]2CC[C@@H](N(C)C)CC2)c(C)c1-c1cc(Sc2ncccc2F)c2c(C#N)cnn2c1 [Example 304, 6-(1-((1s,4s)-4-(dimethylamino)cyclohex-yl)-3,5-dimethyl-1H-pyrazol-4-yl)-4-((3-fluoropyridin-2-yl)thio)pyrazolo[1,5-a]pryidine-3-carbonitrile] | 3.5
Cc1nn(C2CCN(C)CC2)c(C)c1-c1cc(Sc2ccccc2C#N)c2c(C#N)cnn2c1 [Example 305, 4-((2-cyanophenyl)thio)-6-(3,5-dimethyl-1-(1-methylpiperidin-4-yl)-1H-pyrazol-4-yl)pyrazolo[1,5-a]pyridine-3-carbonitrile] | 5
CC(=O)N1CCC(n2ncc(-c3cc(Sc4ccc(F)cn4)c4c(C#N)cnn4c3)c2C)CC1 [Example 306, 6-(1-(1-acetylpiperidin-4-yl)-5-methyl-1H-pyrazol-4-yl)-4-((5-fluoropyridin-2-yl)thio)pyrazolo[1,5-a]pyridine-3-carbonitrile] | 6
Cc1c(-c2cc(Sc3ccc(F)cn3)c3c(C#N)cnn3c2)cnn1[C@H]1CCCNC1 [Example 307, (S)-4-((5-fluoropyridin-2-yl)thio)-6-(5-methyl-1-(piperidin-3-yl)-1H-pyrazol-4-yl)pyrazolo[1,5-a]pyridine-3-carbonitrile] | 5
CC(=O)N1CCC[C@H](n2ncc(-c3cc(Sc4ccc(F)cn4)c4c(C#N)cnn4c3)c2C)C1 [Example 308, (S)-6-(1-(1-acetylpiperidin-3-yl)-5-methyl-1H-pyrazol-4-yl)-4-((5-fluoropyridin-2-yl)thio)pyrazolo[1,5-a]pyridine-3-carbonitrile] | 7
Cc1c(-c2cc(Sc3ccc(F)cn3)c3c(C#N)cnn3c2)cnn1[C@H]1C[C@H]2CC[C@@H](C1)N2C(=O)CO [Example 309, 4-((5-fluoropyridin-2-yl)thio)-6-(1-((1R,3r,5S)-8-(2-hydroxyacetyl)-8-azabicyclo[3.2.1]octan-3-yl)-5-methyl-1H-pyrazol-4-yl)pyrazolo[1,5-a]pyridine-3-carbonitrile] | 6
Cc1c(-c2cc(Sc3ccc(F)cn3)c3c(C#N)cnn3c2)cnn1[C@@H]1C[C@H]2CC[C@@H](C1)N2C(=O)CO [Example 310, 4-((5-fluoropyridin-2-y)thio)-6-(1-((1R,3s,5S)-8-(2-hydroxyacetyl)-8-azabicyclo[3.2.1]octan-3-yl)-5-methyl-1H-pyrazol-4-yl)pyrazolo[1,5-a]pyridine-3-carobnitrile] | 8
CN[C@H]1CC[C@@H](n2ncc(-c3cc(Sc4ccccn4)c4c(C#N)cnn4c3)c2C)CC1 [Example 311, 6-(5-methyl-1-((1s,4s)-4-(methylamino)cyclohexyl)-1H-pyrazol-4-yl)-4-(pyridin-2-ylthio)pyrazolo[1,5-a]pyridine-3-carbonitrile] | 2
Cc1nn([C@H]2CC[C@@H](O)CC2)cc1-c1cc(Sc2ncccc2F)c2c(C#N)cnn2c1 [Example 312, 4-((3-fluoropyridin-2-yl)thio)-6-(1-((1s,4s)-4-hydroxycyclohexyl)-3-methyl-1H-pyrazol-4-yl)pyrazolo[1,5-a]pyridine-3-carbonitrile] | 1.5
Cc1nn([C@H]2CC[C@@H](O)CC2)cc1-c1cc(Sc2ccccc2C#N)c2c(C#N)cnn2c1 [Example 313, 4-((2-cyanophenyl)thio)-6-(1-((1s,4s)-4-hydroxycyclohexyl)-3-methyl-1H-pyrazol-4-yl)pyrazolo[1,5-a]pyridine-3-carbonitrile] | 1
CC(=O)N[C@H]1CC[C@@H](n2cc(-c3cc(Sc4ccccn4)c4c(C#N)cnn4c3)cn2)CC1 [Example 314, N-((1s,4s)-4-(4-(3-cyano-4-(pyridin-2-ylthio)pyrazolo[1,5-a]pyridin-6-yl)-1H-pyrazol-1-yl)cyclohexyl)acetamide] | 2
CC(=O)N[C@H]1CC[C@@H](n2cc(-c3cc(Sc4ncccc4C)c4c(C#N)cnn4c3)cn2)CC1 [Example 315, N-((1s,4s)-4-(4-(3-cyano-4-((3-methylpyridin-2-yl)thio)pyrazolo[1,5-a]pyridin-6-yl)-1H-pyrazol-1-yl)cyclohexyl)acetamide] | 3
CC(=O)N[C@H]1CC[C@@H](n2cc(-c3cc(Sc4ccccc4C#N)c4c(C#N)cnn4c3)cn2)CC1 [Example 316, N-((1s,4s)-4-(4-(3-cyano-4-((2-cyanophenyl)thio)pyrazolo [1,5-a]pyridin-6-yl)-1H-pyrazol-1-yl)cyclohexyl)acetamide] | 0.4
Cc1c(-c2cc(Sc3ccc(F)cc3C#N)c3c(C#N)cnn3c2)cnn1[C@H]1CC[C@@H](N(C)CCO)CC1 [Example 317, 4-((2-cyano-4-fluorophenyl)thio)-6-(1-((1s,4s)-4-((2-hydroxyethyl)(methyl)ami-no)cyclohexyl)-5-methyl-1H-pyrazol-4-yl)pyrazolo[1,5-a]pyridine-3-carbonitrile] | 0.5
Cc1c(-c2cc(Sc3ccccc3C#N)c3c(C#N)cnn3c2)cnn1[C@H]1CC[C@@H](N(C)CCO)CC1 [Example 318, 4-((2-cyanophenyl)thio)-6-(1-((1s,4s)-4-((2-hydroxyethyl)(methyl)ami-no)cyclohexyl)-5-methyl-1H-pyrazol-4-yl)pyrazolo[1,5-a]pyridine-3-carbonitrile] | 0.4
CN[C@]1(C)CC[C@H](n2ncc(-c3cc(Sc4ccccc4C#N)c4c(C#N)cnn4c3)c2C)CC1 [Example 319, 4-((2-cyanophenyl)thio)-6-(5-methyl-1-((1s,4s)-4-methyl-4-(methylamino)cyclohexyl)-1H-pyrazol-4-yl)pyrazolo[1,5-a]pyridine-3-carbonitrile] | 0.3
CN[C@]1(C)CC[C@@H](n2ncc(-c3cc(Sc4ccccc4C#N)c4c(C#N)cnn4c3)c2C)CC1 [Example 320, 4-((2-cyanophenyl)thio)-6-(5-methyl-1-((1r,4r)-4-methyl-4-(methylamino)cyclohexyl)-1H-pyrazol-4-yl)pyrazolo[1,5-a]pyridine-3-carbonitirle] | 0.3
CC(=O)N1CC[C@]2(CC[C@@H](n3ncc(-c4cc(Sc5ccccc5C#N)c5c(C#N)cnn5c4)c3C)CC2)C1 [Example 321, 6-(1-((5r,8r)-2-acetyl-2-azaspiro[4.5]decan-8-yl)-5-methyl-1H-pyrazol-4-yl)-4-((2-cyanophenyl)thio)pyrazolo [1,5-a]pyridine-3-carbonitrile] | 1
CC(=O)N1CC[C@]2(CC[C@H](n3ncc(-c4cc(Sc5ccccc5C#N)c5c(C#N)cnn5c4)c3C)CC2)C1 [Example 322, 6-(1-((5s,8s)-2-acetyl-2-azaspiro[4.5]decan-8-yl)-5-methyl-1H-pyrazol-4-yl)-4-((2-cyanophenyl)thio)pyrazolo [1,5-a]pyridine-3-carbonitrile] | 0.6
Cc1c(-c2cc(Sc3ccc(F)cc3C#N)c3c(C#N)cnn3c2)cnn1[C@H]1CC[C@](C)(O)CC1 [Example 323, 4-((2-cyano-4-fluorophenyl)thio)-6-(1-((1r,4r)-4-hydroxy-4-methylcyclohexyl)-5-methyl-1H-pyrazol-4-yl)pyrazolo[1,5-a]pyridine-3-carbonitrile] | 1
Cc1c(-c2cc(Sc3ccc(F)cc3C#N)c3c(C#N)cnn3c2)cnn1[C@H]1CC[C@@](C)(O)CC1 [Example 324, 4-((2-cyano-4-fluorophenyl)thio)-6-(1-((1s,4s)-4-hydroxy-4-methylcyclohexyl)-5-methyl-1H-pyrazol-4-y)pyrazolo[1,5-a]pyridine-3-carbonitrile] | 1
Cc1c(-c2cc(Sc3ccc(F)cc3C#N)c3c(C#N)cnn3c2)cnn1[C@H]1CC[C@@](C)(N)CC1 [Example 325, 6-(1-((1s,4s)-4-amino-4-methylcyclohexyl)-5-methyl-1H-pyrazol-4-yl)-4-((2-cyano-4-fluorophenyl)thio)pyrazolo [1,5-a]pyridine-3-carbonitrile] | 0.5
CN[C@]1(C)CC[C@H](n2ncc(-c3cc(Sc4ccc(F)cc4C#N)c4c(C#N)cnn4c3)c2C)CC1 [Example 326, 4-((2-cyano-4-fluoorphenyl)thio)-6-(5-methyl-1-((1s,4s)-4-methyl-4-(methylamino)cyclohxyl)-1H-pyrazol-4-eyl)pyrazolo[1,5-a]pyridine-3-carbonitrile] | 1
Cc1c(-c2cc(Sc3ccc(F)cc3C#N)c3c(C#N)cnn3c2)cnn1[C@H]1CC[C@@](C)(N(C)C)CC1 [Example 327, 4-((2-cyano-4-fluorophenyl)thio)-6-(1-((1s,4s)-4-(dimethylamino)-4-methylcyclohexyl)-5-methyl-1H-pyrazol-4-yl)pyrazolo[1,5-a]pyridine-3-carbonitrile] | 0.5
Cc1c(-c2cc(Sc3ncc(F)cc3F)c3c(C#N)cnn3c2)cnn1C1CCN(C)CC1 [Example 328, 4-((3,5-difluoropyridin-2-yl)thio)-6-(5-methyl-1-(1-methylpiperidin-4-yl)-1H-pyrazol-4-yl)pyrazolo[1,5-a]pyridine-3-carbonitrile] | 3
